# In patent US9474740B2, “Ectoparasite control agent” (Nippon Soda Co., Ltd., priority 2013, dated 2016):
# Key:
# Rhipicephalus sanguineus = assay: Parasite extermination test of dog in vivo, R. sanguineus
# Description: Each type of the test compounds was applied to four dogs. One day before treatment (−1 day) of the test compound, about 50 adults of Rhipicephalus sanguineus to which food was not given, per dog, were parasitized. It was estimated that 50% of the 50 ticks were male and 50% of the 50 ticks were female. Separately, the tested compound was dissolved in a mixed solvent consisting of 80% by volume of benzyl alcohol and 20% by volume of isopropyl myristate such that the concentration became 50 mg/ml, whereby a test solution was prepared. On zeroth day, several different spots of the interscapular region were treated with the test solution by “topical spot-on” such that the test compound was treated per 20 mg/kg per body weight of a dog. For comparison, a negative control was also prepared. In order to evaluate the treatment against the parasitized ticks, survival of the ticks were observed on the 2nd day (48 hours after the treatment). To evaluate the durability, on the 5th, 12th, 19th, and 28th day, 50 ticks to which food was not given, per dog, were parasitized again. On the 7th, 14th, 21 st, 30th and 35th day, 48 hours after each was parasitized, survival of the ticks and mites were observed, and the ticks and mites were removed from the dogs. The ticks were classified according to whether or not the ticks were attached, and the survival state was determined. In the evaluation of efficacy, the same geometric mean calculation as that in Test Example 2 was used. […] In addition, for Test Compound 1 to 32, the test compounds were treated per 5 mg/kg per body weight of an individual with respect to a dog.
# [1] = tested on: American dog mites (Dermacentor variabilis) in nymph stage; assay: Acaricidal test of rodent (RAT) in vivo; details: Sprague-Dawley rat, topical 0.05 ml in acetone, effective component concentration of 1% or less (10 mg/ml), 48 hours after the treatment, read-out: efficacy (reduction % in the number of surviving mites)
# Excerpt: Evaluation of the test compounds can be performed by a method obtained by modifying the analysis method described in “J. Med. Entomol. 43 (3) 526-532 (2006)”. In the analysis method, other mite species (in references, described as a mite of Amblyomma americanum) can be also used, and, for example, other mite species such as a mite of Dermacentor variabilis can be also used. A mite-holding unit (which was configured of small size nipples, a crew cap with a vent, and a reinforcing rubber washer) was attached to the back of an adult Sprague-Dawley rat. After attaching the holding unit, 0.05 ml of a test compound dissolved in acetone was applied topically on the skin surface inside the holding unit. After leaving to stand for a sufficient period of time to evaporate the acetone, about 10 American dog mites (Dermacentor variabilis) in nymph stage, to which food was not given, were put into each holding unit. Three to five rats per treatment group were used. 48 hours after the treatment, the holding unit was removed, and the surviving mites and dead mites were counted. In the evaluation of efficacy, geometric mean calculation was used. First, the total number of surviving mites was converted by the natural logarithm transformation by adding 1 (Ln total number+1). That is, by adding 1 to each total number, the total number which was zero was adjusted. The geometric mean (GM) of the total number of mites in a treatment group was obtained by inverse-transforming the mean transformation value of the total number of treatment groups and subtracting 1. The non-treated control group was used for comparison with the groups in which the test compound was given for calculation of efficacy % (reduction % in the number of surviving mites). […] Efficacy [%]=[(survival mites GM number of control−survival mites GM number of treatment groups)/(survival mites GM number of control)×100
# [2] = tested on: fleas (Ctenocephalides felis); assay: Parasite extermination test of dog in vivo, C. felis; details: topical spot-on 20 mg/kg
# Description: Each type of the test compounds was applied to four dogs. One day before treatment (−1 day) of the test compound, about 50 adults of Rhipicephalus sanguineus to which food was not given, per dog, were parasitized. It was estimated that 50% of the 50 ticks were male and 50% of the 50 ticks were female.
# Separately, the tested compound was dissolved in a mixed solvent consisting of 80% by volume of benzyl alcohol and 20% by volume of isopropyl myristate such that the concentration became 50 mg/ml, whereby a test solution was prepared.
# On zeroth day, several different spots of the interscapular region were treated with the test solution by “topical spot-on” such that the test compound was treated per 20 mg/kg per body weight of a dog. For comparison, a negative control was also prepared.
# In addition, on the 12th and 28th day, 50 adult fleas (Ctenocephalides felis) to which food was not given were parasitized together.
# On the 7th, 14th, 21 st, 30th and 35th day, 48 hours after each was parasitized, survival of the ticks and mites were observed, and the ticks and mites were removed from the dogs. The ticks were classified according to whether or not the ticks were attached, and the survival state was determined.
# In the evaluation of efficacy, the same geometric mean calculation as that in Test Example 2 was used.
# [3] = tested on: American dog mites (Dermacentor variabilis); assay: Parasite extermination test of dog in vivo, D. variabilis; details: topical spot-on 20 mg/kg, 35th day
# Description: Each type of the test compounds was applied to four dogs. One day before treatment (−1 day) of the test compound, about 50 adults of Rhipicephalus sanguineus to which food was not given, per dog, were parasitized. It was estimated that 50% of the 50 ticks were male and 50% of the 50 ticks were female. Separately, the tested compound was dissolved in a mixed solvent consisting of 80% by volume of benzyl alcohol and 20% by volume of isopropyl myristate such that the concentration became 50 mg/ml, whereby a test solution was prepared. On zeroth day, several different spots of the interscapular region were treated with the test solution by “topical spot-on” such that the test compound was treated per 20 mg/kg per body weight of a dog. For comparison, a negative control was also prepared. Furthermore, on the 33rd day, 50 adult American dog mites (Dermacentor variabilis) to which food was not given were parasitized. On the 7th, 14th, 21 st, 30th and 35th day, 48 hours after each was parasitized, survival of the ticks and mites were observed, and the ticks and mites were removed from the dogs. The ticks were classified according to whether or not the ticks were attached, and the survival state was determined. In the evaluation of efficacy, the same geometric mean calculation as that in Test Example 2 was used. As the test compounds, 1-3, 1-5, 1-10, 1-28, 1-29, and 1-71 were used. Here, the test using American dog mites was performed on 1-28 and 1-71.
# [4] = topical spot-on 20 mg/kg, 2nd day
# [5] = topical spot-on 20 mg/kg, 7th day
# [6] = topical spot-on 20 mg/kg, 14th day
# [7] = topical spot-on 20 mg/kg, 21st day
# [8] = topical spot-on 20 mg/kg, 30th day
# [9] = 5 mg/kg per body weight, 2nd day
# [10] = 5 mg/kg per body weight, 5th day
SMILES,average number of surviving parasites (Rhipicephalus sanguineus; [4]),efficacy (%) (Rhipicephalus sanguineus; [4]),average number of surviving parasites (Rhipicephalus sanguineus; [5]),efficacy (%) (Rhipicephalus sanguineus; [5]),average number of surviving parasites (Rhipicephalus sanguineus; [6]),efficacy (%) (Rhipicephalus sanguineus; [6]),average number of surviving parasites (Rhipicephalus sanguineus; [7]),efficacy (%) (Rhipicephalus sanguineus; [7]),average number of surviving parasites (Rhipicephalus sanguineus; [8]),efficacy (%) (Rhipicephalus sanguineus; [8]),pest or weed control at up to 10000 µg/mL [1] [%],average number of surviving parasites ([2]; 14th day),efficacy (%) ([2]; 14th day),average number of surviving parasites ([2]; 30th day),efficacy (%) ([2]; 30th day),other results
C=C1SC(=N\c2ccc(C)cc2)/C(=C/Sc2cccs2)CC1(C)C [Compound 1-10],0.5,98.9,0,100,0,100,0.5,99.5,4.3,95.4,≥ 50,0,100,0,100,
C=C1SC(=N\c2ccc(C)cc2)/C(=C/Sc2ccccc2)C(C)C1(C)C (stereo not shown) [Compound 1-28],0.25,99.3,0,100,0,100,0,100,1.8,97.8,≥ 50,0,100,0,100,average number of surviving parasites [3]: 7.0; efficacy (%) [3]: 88.3%
Cc1ccc(/N=C2\SC(C)(C)CC\C2=C/Sc2cccc(C)c2)cc1 [Compound 1-31],,,,,,,,,,,≥ 50,,,,,
C=C1SC(=N\c2ccc(C)cc2)/C(=C/Sc2ccccc2)CC1(C)C [Compound 1-3],0.5,98.6,0,100,0,100,0,100,6.0,92.3,≥ 50,0,100,0,100,
C=C1SC(=N\c2ccc(C)cc2)/C(=C/Sc2cccs2)C(C)C1(C)C (stereo not shown) [Compound 1-29],1.3,97.3,0,100,0,100,0,100,0,100,≥ 50,0,100,0,100,
Cc1ccc(/N=C2\SC(C)(C)CC\C2=C/Sc2ccccc2F)cc1 [Compound 1-32],,,,,,,,,,,≥ 50,,,,,average number of surviving parasites (Rhipicephalus sanguineus; [9]): 0; efficacy (%) (Rhipicephalus sanguineus; [9]): (76.6%); average number of surviving parasites (Rhipicephalus sanguineus; [10]): 0; efficacy (%) (Rhipicephalus sanguineus; [10]): (100%)
C=C1SC(=N\c2ccc(C)cc2)/C(=C/Sc2ccccc2)CC12CCCCC2 [Compound 1-5],0,100,0,100,0,100,1.8,95.4,6.5,86.8,≥ 50,0,100,8.8,98.2,
CC(C)=C1CC(C)C(=C\SCc2ccc(Cl)cc2)/C(=N/c2ccc(C)cc2)S1 (stereo not shown) [Compound 1-71],5.0,90,0,100,0,100,1.8,96.9,0,86.8,≥ 50,0,100,0,100,average number of surviving parasites [3]: 9.8; efficacy (%) [3]: 80.3%
